Laboratory results reported in the supplement of paper PMC8617591.

Legend:
[1] = system: Mycobacterium tuberculosis Erdman (autoluminescent); assay: total FIC50 (Loewe) at 50% inhibition, three-drug combination (log2); higher = more antagonistic
Protocol: (§1)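 DiaMOND equipotent three-drug combination dose responses (10 doses, 1.5- or 2-fold spacing, centred on IC90) against autoluminescent M. tuberculosis Erdman in 8 in vitro models. Read-out is OD600, or luminescence for the intracellular and dormancy models, normalised to untreated wells. Hill-fit Einf, AUC25 and GRinf are potency metrics; FIC50 and FIC90 are total Loewe fractional inhibitory concentrations as log2 (negative = synergy).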

[2] = system: Mycobacterium tuberculosis Erdman (autoluminescent); assay: total FIC90 (Loewe) at 90% inhibition, three-drug combination (log2); higher = more antagonistic
Protocol: as §1

[3] = system: Mycobacterium tuberculosis Erdman (autoluminescent); assay: Einf, fitted maximum growth inhibition of three-drug combination (fraction); higher = stronger maximal inhibition
Protocol: as §1

[4] = system: Mycobacterium tuberculosis Erdman (autoluminescent); assay: AUC25, normalised area under dose response up to IC25 (three-drug combination) (fraction (0-1)); higher = more potent at low dose
Protocol: as §1

[5] = system: Mycobacterium tuberculosis Erdman (autoluminescent); assay: GRinf, maximum normalised growth rate inhibition (three-drug combination) (unitless (-1 to 1)); higher = less effect (negative = killing)
Protocol: as §1

[6] = in vitro model: acidic pH 5.7, time point: constant (~7 days, model-specific)
[7] = in vitro model: acidic pH 5.7, time point: terminal (~4-5 doublings, model-specific)
[8] = in vitro model: butyrate, time point: constant (~7 days, model-specific)
[9] = in vitro model: butyrate, time point: terminal (~4-5 doublings, model-specific)
[10] = in vitro model: cholesterol 0.05 mM, time point: terminal (~4-5 doublings, model-specific)
[11] = in vitro model: cholesterol-high 0.2 mM, time point: constant (~7 days, model-specific)
[12] = in vitro model: cholesterol-high 0.2 mM, time point: terminal (~4-5 doublings, model-specific)
[13] = in vitro model: dormancy (butyrate + nitrate, low O2), time point: constant (~7 days, model-specific)
[14] = in vitro model: dormancy (butyrate + nitrate, low O2), time point: terminal (~4-5 doublings, model-specific)
[15] = in vitro model: valerate, time point: constant (~7 days, model-specific)
[16] = in vitro model: valerate, time point: terminal (~4-5 doublings, model-specific)
[17] = in vitro model: intracellular J774, time point: constant = terminal
[18] = in vitro model: cholesterol 0.05 mM, time point: constant (~7 days, model-specific)
[19] = in vitro model: standard 7H9 glycerol, time point: constant = terminal

CC(C)/N=c1\cc2n(-c3ccc(Cl)cc3)c3ccccc3nc-2cc1Nc1ccc(Cl)cc1 [clofazimine] + COc1c(N2C[C@@H]3CCCN[C@@H]3C2)c(F)cc2c(=O)c(C(=O)O)cn(C3CC3)c12 [moxifloxacin] + NC(=O)c1cnccn1 [pyrazinamide]
total FIC50 [1, 6]: 0.273
total FIC50 [1, 7]: -0.216
total FIC50 [1, 8]: -0.173
total FIC50 [1, 9]: -0.0902
total FIC50 [1, 10]: 0.91
total FIC50 [1, 11]: 0.275
total FIC50 [1, 12]: 0.347
total FIC50 [1, 13]: -0.332
total FIC50 [1, 14]: 0.182
total FIC50 [1, 15]: 0.546
total FIC50 [1, 16]: 0.292
total FIC90 [2, 7]: -0.195
total FIC90 [2, 8]: 0.847
total FIC90 [2, 9]: 0.342
total FIC90 [2, 12]: 0.272
total FIC90 [2, 13]: -0.522
total FIC90 [2, 14]: 0.297
total FIC90 [2, 17]: 0.42
total FIC90 [2, 16]: 0.85
Einf [3, 6]: 0.605
Einf [3, 7]: 0.951
Einf [3, 8]: 0.968
Einf [3, 9]: 0.973
Einf [3, 18]: 0.646
Einf [3, 10]: 0.927
Einf [3, 11]: 0.882
Einf [3, 12]: 0.998
Einf [3, 13]: 0.919
Einf [3, 14]: 0.992
Einf [3, 17]: 0.975
Einf [3, 19]: 0.974
Einf [3, 15]: 0.852
Einf [3, 16]: 0.914
AUC25 [4, 6]: 0.0994
AUC25 [4, 7]: 0.0958
AUC25 [4, 8]: 0.127
AUC25 [4, 9]: 0.0926
AUC25 [4, 18]: 0.129
AUC25 [4, 10]: 0.112
AUC25 [4, 11]: 0.108
AUC25 [4, 12]: 0.0989
AUC25 [4, 13]: 0.113
AUC25 [4, 14]: 0.0767
AUC25 [4, 19]: 0.111
AUC25 [4, 15]: 0.122
AUC25 [4, 16]: 0.067
GRinf [5, 6]: -0.618
GRinf [5, 7]: -0.261
GRinf [5, 8]: -0.193
GRinf [5, 9]: -0.0738
GRinf [5, 18]: -0.114
GRinf [5, 10]: -0.137
GRinf [5, 11]: -0.3
GRinf [5, 12]: -0.761
GRinf [5, 13]: 0.162
GRinf [5, 14]: -0.202
GRinf [5, 17]: -0.333
GRinf [5, 19]: -0.232
GRinf [5, 15]: -0.0384
GRinf [5, 16]: 0.0776

COc1nc2ccc(Br)cc2cc1[C@@H](c1ccccc1)[C@@](O)(CCN(C)C)c1cccc2ccccc12 [bedaquiline] + NC(=O)c1cnccn1 [pyrazinamide] + CO[C@H]1/C=C/O[C@@]2(C)Oc3c(C)c(O)c4c(O)c(c(/C=N/N5CCN(C6CCCC6)CC5)c(O)c4c3C2=O)NC(=O)/C(C)=C\C=C\[C@H](C)[C@H](O)[C@@H](C)[C@@H](O)[C@@H](C)[C@H](OC(C)=O)[C@@H]1C [rifapentine]
total FIC50 [1, 6]: 0.212
total FIC50 [1, 7]: 0.0918
total FIC50 [1, 8]: 0.368
total FIC50 [1, 9]: 0.608
total FIC50 [1, 10]: 0.907
total FIC50 [1, 11]: 0.688
total FIC50 [1, 12]: 1.1
total FIC50 [1, 13]: -0.395
total FIC50 [1, 14]: 0.0969
total FIC50 [1, 19]: -0.269
total FIC50 [1, 15]: 0.992
total FIC50 [1, 16]: 0.965
total FIC90 [2, 7]: 0.167
total FIC90 [2, 8]: 0.452
total FIC90 [2, 9]: 0.896
total FIC90 [2, 12]: 0.6
total FIC90 [2, 13]: -0.492
total FIC90 [2, 14]: -0.227
total FIC90 [2, 17]: 0.111
total FIC90 [2, 16]: 0.779
Einf [3, 6]: 0.951
Einf [3, 7]: 0.987
Einf [3, 8]: 0.973
Einf [3, 9]: 0.995
Einf [3, 18]: 0.75
Einf [3, 10]: 0.854
Einf [3, 11]: 0.959
Einf [3, 12]: 1
Einf [3, 13]: 0.907
Einf [3, 14]: 0.988
Einf [3, 17]: 0.984
Einf [3, 19]: 0.917
Einf [3, 15]: 0.855
Einf [3, 16]: 0.939
AUC25 [4, 6]: 0.105
AUC25 [4, 7]: 0.0905
AUC25 [4, 8]: 0.109
AUC25 [4, 9]: 0.0948
AUC25 [4, 18]: 0.113
AUC25 [4, 10]: 0.0882
AUC25 [4, 11]: 0.0619
AUC25 [4, 12]: 0.0597
AUC25 [4, 13]: 0.0664
AUC25 [4, 14]: 0.0515
AUC25 [4, 19]: 0.0752
AUC25 [4, 15]: 0.0676
AUC25 [4, 16]: 0.0334
GRinf [5, 6]: -0.444
GRinf [5, 7]: -0.331
GRinf [5, 8]: -0.292
GRinf [5, 9]: -0.264
GRinf [5, 18]: -0.416
GRinf [5, 10]: -0.194
GRinf [5, 11]: -0.405
GRinf [5, 12]: -0.644
GRinf [5, 13]: 0.181
GRinf [5, 14]: -0.135
GRinf [5, 17]: -0.419
GRinf [5, 19]: 0.0581
GRinf [5, 15]: -0.194
GRinf [5, 16]: -0.182

COc1nc2ccc(Br)cc2cc1[C@@H](c1ccccc1)[C@@](O)(CCN(C)C)c1cccc2ccccc12 [bedaquiline] + CC[C@@H](CO)NCCN[C@@H](CC)CO [ethambutol] + O=[N+]([O-])c1cn2c(n1)OC[C@@H](OCc1ccc(OC(F)(F)F)cc1)C2 [pretomanid]
total FIC50 [1, 6]: 0.869
total FIC50 [1, 7]: 0.639
total FIC50 [1, 8]: 0.544
total FIC50 [1, 9]: 0.327
total FIC50 [1, 18]: 0.964
total FIC50 [1, 10]: 1.08
total FIC50 [1, 11]: 1.17
total FIC50 [1, 12]: 1.06
total FIC50 [1, 13]: 0.967
total FIC50 [1, 14]: 0.317
total FIC50 [1, 19]: 0.231
total FIC50 [1, 15]: -0.239
total FIC50 [1, 16]: 0.257
total FIC90 [2, 7]: 0.498
total FIC90 [2, 9]: -0.226
total FIC90 [2, 10]: 1.26
total FIC90 [2, 12]: 1.39
total FIC90 [2, 14]: 0.645
total FIC90 [2, 17]: -1.11
total FIC90 [2, 16]: 0.215
Einf [3, 6]: 0.854
Einf [3, 7]: 0.982
Einf [3, 8]: 0.925
Einf [3, 9]: 0.966
Einf [3, 18]: 0.781
Einf [3, 10]: 0.927
Einf [3, 11]: 0.893
Einf [3, 12]: 1
Einf [3, 13]: 0.894
Einf [3, 14]: 0.997
Einf [3, 17]: 0.938
Einf [3, 19]: 0.972
Einf [3, 15]: 0.897
Einf [3, 16]: 0.948
AUC25 [4, 6]: 0.0902
AUC25 [4, 7]: 0.0847
AUC25 [4, 8]: 0.059
AUC25 [4, 9]: 0.0482
AUC25 [4, 18]: 0.0996
AUC25 [4, 10]: 0.0849
AUC25 [4, 11]: 0.0639
AUC25 [4, 12]: 0.0509
AUC25 [4, 13]: 0.123
AUC25 [4, 14]: 0.115
AUC25 [4, 19]: 0.0898
AUC25 [4, 15]: 0.139
AUC25 [4, 16]: 0.0867
GRinf [5, 6]: -0.482
GRinf [5, 7]: -0.316
GRinf [5, 8]: -0.0548
GRinf [5, 9]: -0.0543
GRinf [5, 18]: -0.351
GRinf [5, 10]: -0.277
GRinf [5, 11]: -0.294
GRinf [5, 12]: -0.825
GRinf [5, 13]: 0.353
GRinf [5, 14]: -0.265
GRinf [5, 17]: -0.203
GRinf [5, 19]: -0.0976
GRinf [5, 15]: -0.0325
GRinf [5, 16]: -0.0164
